Results on 9 compounds are retold here after patent publication US20220402908A1, “CXCR6 INHIBITORS AND METHODS OF USE” (Sanford Burnham Prebys Medical Discovery Institute, priority 2019, published 2022).

Assay [1] has as its target T1, CXCR6 (Homo sapiens, UniProt O00574). Nature of the assay: β-arrestin recruitment inhibition in CXCR6-expressing CHO-K1 cells (PathHunter, DiscoveRx). The class given is cell-based. How it is done:
(§1) Compounds of Formula (I), (Ia), (Ib), (Ic), (Id), and (II) are tested for their ability to inhibit β-arrestin recruitment in CXCR6-expressing CHO-K1 cells using the β-galactosidase PathHunter Enzyme Complementation Platform from DiscoveRx. A detailed protocol for this assay is available on PubChem (AIDs 624129). Accordingly, 800 CHO-K1 cells expressing CXCR6 (DiscoveRx, Cat #93-0205C2) are seeded into the wells of a white opaque 1536-well plate, centrifuged, and incubated overnight at 37° C., 5% CO2. The next day, compounds of Formula (I), (Ia), (Ib), (Ic), (Id), and (II) and controls (CXCL16 (10 nM) or DMSO) are dispensed into wells and incubated for 1.5 h. The assay is terminated upon addition of lysis buffer, detection substrate, and enzyme. Luminescence is read on the Envision plate reader 1 h post-termination. All compounds are tested in a 10 pt dose-response curve in duplicate. Compounds will also be tested in a CXCR6-dependent cAMP assay using the Lance Ultra assay from PerkinElmer. Accordingly, 2 uL CXCR6-expressing cells are suspended in assay media (OptiMEM; 2% FBS; 1×P/S) and plated at 500 cells/well in 1536-well, white, TC plates and grown overnight at 37° C.; 5% CO2. 40 nL test compounds of Formula (I), (Ia), (Ib), (Ic), (Id), and (II) are added to cells using ECHO dispenser. 2 uL of 2.5 mM forskolin in stimulation buffer (HBSS; 5 mM HEPES; 0.1% BSA; 0.1 mM RO-20-1724) with or without 20 nM CXCL16 is transferred to wells using BioRAPTR. Wells treated with forskolin and CXCL16 serve as negative controls and wells treated with forskolin only serve as positive controls. Cells are incubated at room temperature for 30 min followed by addition of 2 uL each EU-cAMP tracer and ULight anti-cAMP Ab in detection buffer according to manufacturer's instruction. After 30 min at room temperature, TR-FRET is read using EnVision plate reader.
On the technique in general: Activated receptors often draw arrestin, which recruitment assays turn into a signal.

The target of assay [2] is T1, CXCR6. Put plainly: CXCR6-dependent cAMP assay (Lance Ultra, PerkinElmer). In kind it is cell-based. To be noted: CXCR6-expressing cells, forskolin + CXCL16; Table B-1. On the procedure: as §1
(Cyclic AMP is a second messenger, typically raised through Gs and lowered through Gi signalling.)

The test system of assay [3] is SK-Hep-1 cancer xenograft. Put plainly: SK-Hep-1 cancer xenograft tumor growth. Particulars: compared to control; FIG. 1 legend. In kind it is in vivo.
[4] abbreviates: CXCR6-expressing CHO-K1 cells, Table B-1, read-out: IC50 (β-arrestin).

T1 sequence (O00574 whole entry): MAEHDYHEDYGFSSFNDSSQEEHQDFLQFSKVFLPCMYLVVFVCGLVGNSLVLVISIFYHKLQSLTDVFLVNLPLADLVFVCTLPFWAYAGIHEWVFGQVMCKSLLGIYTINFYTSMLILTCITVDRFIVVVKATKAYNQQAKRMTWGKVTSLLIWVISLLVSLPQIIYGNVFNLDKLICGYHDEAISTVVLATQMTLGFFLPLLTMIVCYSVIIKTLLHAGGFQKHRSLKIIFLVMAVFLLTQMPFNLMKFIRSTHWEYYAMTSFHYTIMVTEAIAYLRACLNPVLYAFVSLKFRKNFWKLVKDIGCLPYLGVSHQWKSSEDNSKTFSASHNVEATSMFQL

What is called IC50 is the concentration that inhibits the measured activity by half. In turn, `COc1cc(C(=O)N2C[C@H]3CCC[C@@H](C2)N3Cc2nc3c(C(F)(F)F)cccc3s2)cc(OC)c1OC` [((1R,5S)-9-((4-(trifluoromethyl)benzo[d]thiazol-2-yl)methyl)-3,9-diazabicyclo[3.3.1]nonan-3-yl)(3,4,5-trimethoxyphenyl)methanone] displayed an IC50 against CXCR6 [1] of 100 to 2000 nM.

Turning to `COc1cc(C(=O)N[C@@H]2C[C@H]3CCC[C@@H](C2)N3Cc2cc3ccccc3s2)cc(OC)c1OC` [N-((1R,3s,5S)-9-(benzo[b]thiophen-2-ylmethyl)-9-azabicyclo[3.3.1]nonan-3-yl)-3,4,5-trimethoxybenzamide], the IC50 at CXCR6 [1] (setting [4]) lay within 100 to 2000 nM; on CXCR6 [2], 5 to 20 µM. With `CCC(C)Oc1ccc(C(=O)N[C@@H]2C[C@H]3CCC[C@@H](C2)N3Cc2nc3c(C(F)(F)F)cccc3s2)cc1OC` (stereo partly drawn) [4-(sec-butoxy)-3-methoxy-N-((1R,3s,5S)-9-((4-(trifluoromethyl)benzo[d]thiazol-2-yl)methyl)-9-azabicyclo[3.3.1]nonan-3-yl)benzamide], the IC50 on CXCR6 [1] (setting [4]) is < 100 nM. Regarding `COc1cc(C(=O)N[C@@H]2C[C@H]3CCC[C@@H](C2)N3CC(=O)Nc2ccccc2Cl)cc(OC)c1OC` [N-((1R,3s,5S)-9-(2-((2-chlorophenyl)amino)-2-oxoethyl)-9-azabicyclo[3.3.1]nonan-3-yl)-3,4,5-trimethoxybenzamide], the IC50 at CXCR6 [1] (setting [4]) lay within 100 to 2000 nM; on CXCR6 [2], 2 to 5 µM.

The compound `COc1cc(C(=O)N[C@@H]2C[C@H]3CCC[C@@H](C2)N3Cc2nc3c(C(F)(F)F)cccc3s2)ccc1OC(C)C` [4-isopropoxy-3-methoxy-N-((1R,3s,5S)-9-((4-(trifluoromethyl)benzo[d]thiazol-2-yl)methyl)-9-azabicyclo[3.3.1]nonan-3-yl)benzamide] gave a half-inhibitory concentration (IC50) at CXCR6 [1] of 100 to 2000 nM. Take `COc1cc(C(=O)N[C@@H]2C[C@H]3CCC[C@@H](C2)N3Cc2nc3c(C(F)(F)F)cccc3s2)cc(OC)c1OC` [Compound 1, 3,4,5-trimethoxy-N-((1R,3s,5S)-9-((4-(trifluoromethyl)benzo[d]thiazol-2-yl)methyl)-9-azabicyclo[3.3.1]nonan-3-yl)benzamide]: the IC50 against CXCR6 [1] was < 100 nM. Still for that read-out and setting: the same measure for `COc1cc(C(=O)N[C@@H]2C[C@H]3CCC[C@@H](C2)N3Cc2nc3c(Cl)c(Cl)ccc3s2)cc(OC)c1OC` [N-((1R,3s,5S)-9-((4,5-dichlorobenzo[d]thiazol-2-yl)methyl)-9-azabicyclo[3.3.1]nonan-3-yl)-3,4,5-trimethoxybenzamide]: < 100 nM. For `COc1cc(C(=O)N[C@@H]2C[C@H]3CCC[C@@H](C2)N3Cc2nc3c(Cl)cccc3s2)cc(OC)c1OC` [N-((1R,3s,5S)-9-((4-chlorobenzo[d]thiazol-2-yl)methyl)-9-azabicyclo[3.3.1]nonan-3-yl)-3,4,5-trimethoxybenzamide], the values for the IC50 on CXCR6 [1] (setting [4]) and on CXCR6 [2] were 100 to 2000 nM and 0.1 to 2 µM, respectively. For the compound `O=P1(N(CCCl)CCCl)NCCCO1` (stereo not drawn) [cyclophosphamide], in assay [3], the “tumor growth, SK-Hep-1 cancer xenograft” value is “tumor growth reduction”.
